Usually IC50 stands for the point on the concentration scale where inhibition reaches its midpoint. The melting point is the temperature of the solid-liquid transition.

Structures can show the parent of a compound that is named as a salt. Where two headings read alike, the source gives them in different places. Some results are limits rather than exact numbers.

Data set [1] concerns sound-induced tonic convulsions in DBA/2 mice. Briefly: Audiogenic seizure model in DBA/2 mice. Format: in vivo. To be noted: Mus musculus, protected/tested, read-out: Number of Mice Protected From Tonic Convulsions (converted); for responders at 30 mg/kg: 30 mg/Kg IV; for responders at 3 mg/kg: 3 mg/Kg IV; for responders at 10 mg/kg: 10 mg/Kg IV. The procedure: Audiogenic Seizure Model in DBA/2 Mice
A compound of the present invention was dissolved in water using 10% (weight/volume) Emulphor (GAF Corp., Wayne, N.J.) surfactant. Substances were administered by intravenous injection into the retro-orbital venous sinus of male mice (3-4 weeks old, Jackson Laboratories, Bar Harbour, Me.). All testing was preformed 15 minutes or 45 minutes after drug injection. Immediately before anticonvulsant testing, mice were placed upon a wire mesh, 4 inches square suspended from a steel rod. The square was slowly inverted through 180 degrees and mice observed for 30 seconds. Any mouse falling from the wire mesh was scored as ataxic.
Mice were placed into an enclosed acrylic plastic chamber (21 cm height, approximately 30 cm diameter) with a high-frequency speaker (4 cm diameter) in the center of the top lid. An audio signal generator (Protek model B-810) was used to produce a continuous sinusoidal tone that Was swept linearly in frequency between 8 kHz and 16 kHz once each 10 msec. The average sound pressure level (SPL) during stimulation was approximately 100 dB at the floor of the chamber. Mice were placed within the chamber and allowed to acclimatize for 1 minute. DBA/2 mice in the vehicle-treated group responded to the sound stimulus (applied until tonic extension occurred, or for a maximum of 60 sec) with a characteristic seizure sequence consisting of wild running followed by clonic seizures, and later by tonic extension, and finally by respiratory arrest and death in 80% or more of the mice. In vehicle-treated mice, the entire sequence of seizures to respiratory arrest lasts approximately 15-20 seconds.
The incidence of all the seizure phases in the drug-treated and vehicle-treated mice was recorded, and the occurrence of tonic seizures were used for calculating anticonvulsant ED50 values by probit analysis. Mice were used only once for testing at each time and dose point.

The target of data set [2] is T1, L-type calcium channels in A10 cells (Rattus norvegicus, UniProt P22002).
T1 construct: which endogenously expresses L-type calcium channels; host or cells: A10 rat embryonic thoracic aorta smooth muscle cells
Briefly: L-type Ca2+ channel blocking potency in A10 cells (FLIPR). Format: cell-based. Conditions: read-out: FLPA10 IC50. The essentials: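 Rat A10 aortic smooth-muscle cells endogenously expressing L-type channels were loaded with Oregon Green BAPTA-1 and preincubated with compound for 5 min at 35 °C. Cells were then depolarized with 140 mM KCl buffer. Summed fluorescence above basal over 120 s gave % inhibition versus buffer-treated stimulated wells, with zero influx defined by 1.0×10^−6 M nitrendipine.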

The subject of data set [3] is electroshock-induced tonic extensor seizures in CF-1 mice. Kind of data set: Maximal electroshock testing. Format: in vivo. To be noted: protected/tested. The protocol:
Maximal Electroshock Testing
In this test, four representative compounds were tested for their anticonvulsant effects using the procedure described below.
Male CF-1 mice, 20 to 28 g, from Charles River Laboratories, Portage, Mich. were used in all experiments. Groups of 10 mice each were given various intravenous doses of test compound in aqueous solution with 10% Emulphan® Surfactant in a volume of 10 mL/kg of body weight. Electroshock was delivered by corneal electrodes with 60 Hz alternating current (50 mA root-mean-squared for 0.2 seconds) using a constant-current stimulator (Wahlquist Instruments, Salt Lake City, Utah). Untreated or saline-treated mice reliably had tonic extensor seizures with rearward extension of hindlimbs more than 3 seconds. These methods are similar to those published by Krall R. L.; Penry J. K.; White B. G.; and Kupferberg H. K. Antiepileptic Drug Development II. Anticonvulsant Drug Screening, Epilepsia, 1978; 19:409-428.
A general note: Protection in the maximal electroshock model is a classic sign of anticonvulsant action.

Setting [4] is: 10 mg/Kg iv, 15 min posttreatment.
The mark [5] stands for this setting: 30 mg/Kg iv, 15 min posttreatment.

T1 sequence (P22002 whole entry): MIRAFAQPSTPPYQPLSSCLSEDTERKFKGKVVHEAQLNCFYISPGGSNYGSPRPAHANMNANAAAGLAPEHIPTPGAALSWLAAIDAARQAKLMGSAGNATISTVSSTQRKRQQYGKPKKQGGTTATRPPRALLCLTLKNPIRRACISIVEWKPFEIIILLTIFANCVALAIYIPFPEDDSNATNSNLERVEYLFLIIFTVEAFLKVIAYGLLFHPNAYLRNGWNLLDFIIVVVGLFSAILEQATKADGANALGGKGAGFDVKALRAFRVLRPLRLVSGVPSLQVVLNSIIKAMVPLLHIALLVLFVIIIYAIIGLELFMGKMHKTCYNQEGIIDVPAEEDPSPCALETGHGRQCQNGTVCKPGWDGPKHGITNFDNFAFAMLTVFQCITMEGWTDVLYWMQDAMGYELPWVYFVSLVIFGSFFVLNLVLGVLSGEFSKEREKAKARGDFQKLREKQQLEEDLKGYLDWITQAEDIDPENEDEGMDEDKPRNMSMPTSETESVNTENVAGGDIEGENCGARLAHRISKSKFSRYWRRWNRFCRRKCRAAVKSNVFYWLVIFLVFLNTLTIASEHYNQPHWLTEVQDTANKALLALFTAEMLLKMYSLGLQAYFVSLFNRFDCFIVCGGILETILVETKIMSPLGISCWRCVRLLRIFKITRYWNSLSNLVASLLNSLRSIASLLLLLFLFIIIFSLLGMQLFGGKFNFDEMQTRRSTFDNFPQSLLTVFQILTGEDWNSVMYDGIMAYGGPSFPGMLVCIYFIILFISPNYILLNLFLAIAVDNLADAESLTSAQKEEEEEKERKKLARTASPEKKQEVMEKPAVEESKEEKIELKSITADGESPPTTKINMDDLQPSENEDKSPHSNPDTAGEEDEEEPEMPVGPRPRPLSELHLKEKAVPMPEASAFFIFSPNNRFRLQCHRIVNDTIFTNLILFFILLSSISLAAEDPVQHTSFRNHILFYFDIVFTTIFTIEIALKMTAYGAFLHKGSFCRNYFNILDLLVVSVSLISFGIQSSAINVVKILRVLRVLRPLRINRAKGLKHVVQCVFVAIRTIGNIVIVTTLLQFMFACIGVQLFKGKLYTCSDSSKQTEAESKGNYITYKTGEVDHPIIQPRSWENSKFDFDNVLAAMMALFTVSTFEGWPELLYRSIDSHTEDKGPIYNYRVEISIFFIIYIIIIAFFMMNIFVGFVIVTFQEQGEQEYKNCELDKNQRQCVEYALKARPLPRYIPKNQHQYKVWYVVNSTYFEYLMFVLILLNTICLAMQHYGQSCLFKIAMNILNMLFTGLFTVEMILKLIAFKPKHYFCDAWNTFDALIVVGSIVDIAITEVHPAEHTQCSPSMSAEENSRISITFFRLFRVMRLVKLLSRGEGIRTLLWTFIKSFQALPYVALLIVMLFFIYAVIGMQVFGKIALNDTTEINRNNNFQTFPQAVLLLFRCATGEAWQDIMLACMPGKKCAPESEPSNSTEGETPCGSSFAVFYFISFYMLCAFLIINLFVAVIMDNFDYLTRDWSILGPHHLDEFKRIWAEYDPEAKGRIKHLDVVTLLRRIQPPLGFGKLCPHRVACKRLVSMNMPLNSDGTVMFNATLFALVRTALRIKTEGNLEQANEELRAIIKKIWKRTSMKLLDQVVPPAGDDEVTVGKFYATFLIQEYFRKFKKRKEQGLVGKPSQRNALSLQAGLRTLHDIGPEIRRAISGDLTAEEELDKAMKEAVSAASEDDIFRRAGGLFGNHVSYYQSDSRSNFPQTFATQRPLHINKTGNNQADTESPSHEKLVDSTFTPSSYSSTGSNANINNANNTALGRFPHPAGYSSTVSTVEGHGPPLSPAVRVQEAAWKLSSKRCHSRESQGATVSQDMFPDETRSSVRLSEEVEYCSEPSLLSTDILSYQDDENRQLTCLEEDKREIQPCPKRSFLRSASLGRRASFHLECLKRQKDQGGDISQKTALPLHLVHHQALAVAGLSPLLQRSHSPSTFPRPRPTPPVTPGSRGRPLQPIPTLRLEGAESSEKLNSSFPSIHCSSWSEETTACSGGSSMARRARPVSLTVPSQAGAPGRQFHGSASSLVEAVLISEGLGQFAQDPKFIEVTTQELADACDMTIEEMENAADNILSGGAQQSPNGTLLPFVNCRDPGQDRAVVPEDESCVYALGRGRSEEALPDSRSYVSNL
T1 sequence (P54290 25-944 partner limits assumed): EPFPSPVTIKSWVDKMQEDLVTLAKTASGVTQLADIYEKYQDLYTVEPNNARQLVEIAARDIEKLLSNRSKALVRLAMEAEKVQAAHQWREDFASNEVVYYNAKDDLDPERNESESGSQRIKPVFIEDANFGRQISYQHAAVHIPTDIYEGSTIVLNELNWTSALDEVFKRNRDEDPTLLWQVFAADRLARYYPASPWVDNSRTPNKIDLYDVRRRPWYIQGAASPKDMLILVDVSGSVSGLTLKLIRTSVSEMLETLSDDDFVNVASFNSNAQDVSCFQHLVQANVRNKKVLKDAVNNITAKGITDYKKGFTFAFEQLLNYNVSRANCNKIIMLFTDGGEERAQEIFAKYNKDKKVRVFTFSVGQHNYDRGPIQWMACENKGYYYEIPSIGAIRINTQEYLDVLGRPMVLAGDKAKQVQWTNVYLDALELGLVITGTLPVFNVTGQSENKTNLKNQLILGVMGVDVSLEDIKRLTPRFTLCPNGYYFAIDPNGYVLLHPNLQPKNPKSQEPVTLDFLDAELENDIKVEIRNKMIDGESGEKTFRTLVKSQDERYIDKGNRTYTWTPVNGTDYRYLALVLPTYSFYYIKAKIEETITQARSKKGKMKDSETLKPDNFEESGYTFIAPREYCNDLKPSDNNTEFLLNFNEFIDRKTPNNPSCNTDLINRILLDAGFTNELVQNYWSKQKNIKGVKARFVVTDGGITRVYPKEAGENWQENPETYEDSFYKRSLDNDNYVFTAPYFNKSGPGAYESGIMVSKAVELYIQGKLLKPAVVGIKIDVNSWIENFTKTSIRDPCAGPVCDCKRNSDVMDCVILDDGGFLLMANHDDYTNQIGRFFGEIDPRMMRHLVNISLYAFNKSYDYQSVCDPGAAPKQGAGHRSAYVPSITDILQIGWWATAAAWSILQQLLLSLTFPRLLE
T1 sequence (P54290 945-1091 partner limits assumed): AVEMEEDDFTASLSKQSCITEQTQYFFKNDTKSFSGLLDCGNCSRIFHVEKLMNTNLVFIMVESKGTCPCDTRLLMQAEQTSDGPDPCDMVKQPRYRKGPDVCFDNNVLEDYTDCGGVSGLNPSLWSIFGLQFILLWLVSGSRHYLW
T1 sequence (P54287 whole entry partner): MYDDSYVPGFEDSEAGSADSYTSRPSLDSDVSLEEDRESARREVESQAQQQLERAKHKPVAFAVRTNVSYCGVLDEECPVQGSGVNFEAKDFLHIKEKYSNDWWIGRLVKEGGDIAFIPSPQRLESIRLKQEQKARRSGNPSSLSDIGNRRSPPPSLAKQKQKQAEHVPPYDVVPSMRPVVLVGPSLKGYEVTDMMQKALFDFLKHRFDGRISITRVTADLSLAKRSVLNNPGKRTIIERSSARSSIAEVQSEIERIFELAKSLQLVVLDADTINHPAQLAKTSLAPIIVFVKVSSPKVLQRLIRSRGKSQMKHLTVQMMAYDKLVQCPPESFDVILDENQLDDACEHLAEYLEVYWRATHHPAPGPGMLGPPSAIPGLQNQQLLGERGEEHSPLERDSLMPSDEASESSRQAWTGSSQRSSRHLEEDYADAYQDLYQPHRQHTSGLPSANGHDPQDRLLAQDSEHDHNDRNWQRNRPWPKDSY

For the compound `CC(C)C[C@H](N)C(=O)NCCCC(c1ccc(F)cc1)c1ccc(F)cc1` [Example 7, (S)-2-Amino-4-methyl-pentanoic acid [4,4-bis-(4-fluoro-phenyl)-butyl]-amide monohydrochloride], the responders at 30 mg/kg in data set [1] (0.25 h, 15 min posttreatment) is 80%; in data set [1] (0.75 h, 45 min posttreatment), 80%. Moreover, the IC50 in data set [2] worked out at 280 nM.
With `CC(C)C[C@H](NCC1CCCCC1)C(=O)NCCCC(c1ccc(F)cc1)c1ccc(F)cc1` [Example 8, (S)-2-(Cyclohexylmethyl-amino)-4-methyl-pentanoic acid [4,4-bis-(4-fluoro-phenyl)-butyl]-amide monohydrochloride], the responders at 3 mg/kg is 0% in data set [1] (0.25 h, 15 min posttreatment) and 0% in data set [1] (0.75 h, 45 min posttreatment). Further, the responders at 10 mg/kg was 80% in data set [1] (0.25 h, 15 min posttreatment) and 40% in data set [1] (0.75 h, 45 min posttreatment). The responders at 30 mg/kg in data set [1] (0.25 h, 15 min posttreatment) was 100%; in data set [1] (0.75 h, 45 min posttreatment) it was 100%. Moreover, in data set [2], the IC50 is 450 nM. For the same compound, the “Number of Mice Protected from Tonic Convulsions” value (shortened to “Number of Mice Protected”) was 0/4 in data set [3] (setting [4]); 0/5 in data set [3] (10 mg/Kg iv, 45 min posttreatment); 4/4 in data set [3] (setting [5]); 2/2 in data set [3] (30 mg/Kg iv, 45 min posttreatment).
With `CC(C)=CCN[C@@H](CC(C)C)C(=O)NCCCC(c1ccc(F)cc1)c1ccc(F)cc1` [Example 9, (S)-4-Methyl-2-(3-methyl-but-2-enylamino)-pentanoic acid [4,4-bis-(4-fluoro-phenyl)-butyl]-amide monohydrochloride], in data set [1] (0.25 h, 15 min posttreatment), the responders at 3 mg/kg was 60%, the responders at 10 mg/kg is 100% and the responders at 30 mg/kg is 100%. Further, in data set [1] (0.75 h, 45 min posttreatment), the responders at 3 mg/kg was 0%, the responders at 10 mg/kg was 60% and the responders at 30 mg/kg is 100%. The IC50 in data set [2] was determined as 390 nM. The “Number of Mice Protected” value in data set [3] (setting [4]) is recorded as 10/10. Further, in data set [3] (setting [5]), the “Number of Mice Protected” value is reported as 10/10.
For the compound `CN[C@@H](CC(C)C)C(=O)NCCCC(c1ccc(F)cc1)c1ccc(F)cc1` [Example 12, (S)-4-Methyl-2-methylamino-pentanoic acid [4,4-bis-(4-fluoro-phenyl)-butyl]-amide monohydrochloride], the responders at 30 mg/kg is 100% in data set [1] (0.25 h, 15 min posttreatment) and 80% in data set [1] (0.75 h, 45 min posttreatment). In addition, the IC50 in data set [2] amounted to 600 nM.
Compound `CC(C)C[C@@H](C(=O)NCCCC(c1ccc(F)cc1)c1ccc(F)cc1)N(C)Cc1ccc(C(C)(C)C)cc1.Cl` [Example 14, (S)-2-[(4-tert-Butyl-benzyl)-methyl-amino]-4-methyl-pentanoic acid [4,4-bis-(4-fluoro-phenyl)-butyl]-amide monohydrochloride] came in with a melting point of 87 to 95 °C. Also, the IC50 in data set [2] was greater than 3000 nM.
In the case of `CC(C)CCN(C)[C@@H](CC(C)C)C(=O)NCCCC(c1ccc(F)cc1)c1ccc(F)cc1` [Example 28, (S)-4-Methyl-2-[methyl-(3-methyl-butyl)-amino]-pentanoic acid [4,4-bis-(4-fluoro-phenyl)-butyl]-amide monohydrochloride], the responders at 30 mg/kg in data set [1] (0.25 h, 15 min posttreatment) is 80%; in data set [1] (0.75 h, 45 min posttreatment), 100%. For the same compound, in data set [2], the IC50 is 290 nM.
Turning to `CC(C)C[C@H](NC(=O)N1CCCCCC1)C(=O)N1CCN(C(c2ccc(F)cc2)c2ccc(F)cc2)CC1` [Example 31, (S)-Azepane-1-carboxylic acid (1-{4-[bis-(4-fluoro-phenyl)-methyl]-piperazine-1-carbonyl}-3-methyl-butyl)-amide], the responders at 30 mg/kg in data set [1] (0.25 h, 15 min posttreatment) is 0%; in data set [1] (0.75 h, 45 min posttreatment) it was 0%. The IC50 in data set [2] came out at 1200 nM.
Regarding `CC(C)[C@H](NC(=O)N1CCCCCC1)C(=O)N1CCN(C(c2ccc(F)cc2)c2ccc(F)cc2)CC1` [Example 33, (S)-Azepane-1-carboxylic acid (1-{4-[bis-(4-fluoro-phenyl)-methyl]-piperazine-1-carbonyl}-2-methyl-propyl)-amide], the responders at 30 mg/kg was 0% in data set [1] (0.25 h, 15 min posttreatment) and 0% in data set [1] (0.75 h, 45 min posttreatment). The IC50 in data set [2] came out at 360 nM.
On to `CC(C)C[C@@H](CN1CCN(C(c2ccc(F)cc2)c2ccc(F)cc2)CC1)NC(=O)N1CCCCCC1` [Example 36, (S)-Azepane-1-carboxylic acid (1-{4-[bis-(4-fluoro-phenyl)-methyl]-piperazin-1-ylmethyl}-3-methyl-butyl)-amide], for which the IC50 in data set [2] came out at 270 nM.
Same read-out and setting: as for `CC(C)C[C@@H](C(=O)N1CCN(C(c2ccc(F)cc2)c2ccc(F)cc2)CC1)N(C)C` [Example 39, (S)-1-{4-[Bis-(4-fluoro-phenyl)-methyl]-piperazin-1-yl}-2-dimethylamino-4-methyl-pentan-1-one dihydrochloride], the figure is 890 nM.

The values are drawn from patent US6458781B1, “Substituted diarylalkyl amides as calcium channel antagonists” (priority 1998, dated 2002).
